Results taken from patent publication US7410806B2, “Compound for inhibiting the influx of polymorphonuclear leukocytes (PMNs) in a tissue, its selection, pharmaceutical compositions and use” (Fornix Biosciences N.V., priority 1999, dated 2008).

Key:
[1] = test system: inflammatory cells in the bronchial-alveolar liquid; assay type: in vivo, C57B1/6J mice; settings: for Number PMNs in bronchial-alveolar liquid / Total number infl. cells in bronchial-alveolar liquid: substance alone, aerosol on day 0, 2 and 7, 24 h after final treatment (day 8), n=3
Experimental: (§1) On day 0, 2 and 7, two groups C75Bl/6J mice received 30 minutes' treatment with an aerosol (in an atomizing chamber as described in example 1) comprising (i) vehicle (phosphate-buffered physiological salt solution), (ii) N—AcPGP (0.4 mg/ml) or (iii) N—AcPGP (0.4 mg/ml) and 4-RTR (1 mg/ml). 30 minutes prior to the aerosol, the mice of group (i) and (ii) received intranasal vehicle and the mice of group (iii), 4RTR (1 mg/ml). […] (see Table III).

[2] = test system: alveolar dilatation (lung emphysema); test: Lung emphysema induced by N-AcPGP: mean linear intercept (Lm); assay type: in vivo, C75Bl/6J mice; settings: N-AcPGP aerosol day 0, 2, 7; lungs on day 21; FIG. 1
Experimental: as §1
On day 21 the mice of the second group (which on day 0, 2, and 7 were treated in the same manner as the mice of the first group), were sacrificed by means of an overdose of anaesthetic (Nembutal) and the lungs were isolated and fixed by filling the lungs with Carnoy's fixative under a liquid pressure of 25 cm. The lungs were prepared for histological analysis. The mean linear intercept (Lm), indicative for alveolar dilatation, was calculated by placing a grid over the illustrations of 5 separate fields (300× magnification) per mouse lung. The total length of the lines was divided by the number of intercepts, resulting in the Lm, providing a measure for the average size of the bronchial volume of the lung.

[3] = test system: PGP-induced PMN influx in the mouse lung; test: PGP-induced PMN influx in the mouse lung (lung-wash cell counts); assay type: in vivo, Balb/c mice; settings: for Eos in lung-wash liquid / Monos in lung-wash liquid / Neutros in lung-wash liquid / Total cells in lung-wash liquid: PBS pre-treatment, atomization of the substance (10^-3 M, 30 min), 5 h after onset, ± SEM; for Influx of neutrophilic and eosinophilic granulocytes in the lungs: atomization of the substance
Experimental: Solutions were prepared of N—Ac-PGP (0.36 mg/ml; 10^−3 M) and N-methyl-PGP (0.32 mg/ml; 10^−3 M) in phosphate-buffered physiological salt (PBS). In an atomizing chamber, 6-8 weeks old Balb/c mice (groups of 4 mice) were subjected for 30 minutes to either N-acetyl-PGP or N-methyl-PGP. Control mice only received PBS. One hour prior to subjection in the atomizing chamber and one hour after the start of subjection each mouse received 50 μl of 1 mg/ml 4RTR. The treatment is outlined in the Table I below.
5 Hours after the onset of subjection the mice were sacrificed by administering an overdose of Nembutal. After the application of a tracheal canula the lungs were washed with 4 ml PBS. The lung-wash liquid was centrifuged (5 min.; 4° C.; 580 g) and the cell pellet was taken up in 150 μl PBS. The cells were counted under the microscope. To distinguish between neutrophilic and eosinophilic granulocytes and mononuclear cells (haematoxylin/eosin dye, H/E dye: Diff-Quick, Merz & Dade, A. G. Dübingen, Switzerland), the cytospin technique was applied (Buckley, T. L. and Nijkamp, F. P., “Airways hyperreactivity and cellular accumulation in a delayed-type hypersensitivity reaction in the mouse: modulation by capsaicin-sensitive nerves”. Am. J. Respir. Crit. Care Med. 149: 400-407 (1994)).

Substance | Number PMNs in bronchial-alveolar liquid [1] | Total number infl. cells in bronchial-alveolar liquid [1] | Mean linear intercept (Lm), indicative for alveolar dilatation [2] | Increase of the total number of inflammatory cells in the bronchial-alveolar washing liquid in comparison with the vehicle control ([1]; N-AcPGP 0.4 mg/ml aerosol day 0, 2, 7, day 8) [fold] | Eos in lung-wash liquid [3] | Monos in lung-wash liquid [3] | Neutros in lung-wash liquid [3] | Total cells in lung-wash liquid [3] | Influx of neutrophilic and eosinophilic granulocytes in the lungs [3]
FMLP | 10.7± 3 ×10^5 | 61 ± 5 ×10^5 | – | – | – | – | – | – | –
N-acetyl-Pro-Gly-Pro [N-AcPGP] | 11.7 ± 0.8 ×10^5 | 55 ± 1 ×10^5 | significant increase | 2 | 1.1 ± 0.6 ×10^4 cells/ml | 28.3 ± 8.6 ×10^4 cells/ml | 20.1 ± 7.5 ×10^4 cells/ml | 49.5 ± 3.1 ×10^4 cells/ml | results in the influx of neutrophilic and eosinophilic granulocytes in the lungs
N-methyl-Pro-Gly-Pro [N-methylPGP] | – | – | – | – | 0.2 ± 0.1 ×10^4 cells/ml | 33.9 ± 3.4 ×10^4 cells/ml | 11.9 ± 3.6 ×10^4 cells/ml | 46.1 ± 3.2 ×10^4 cells/ml | results in the influx of neutrophilic and eosinophilic granulocytes in the lungs
